{"source": "patent US20080249317A1", "about": "(APOTEX INC., priority 2007, published 2008)", "key": {"[1]": {"settings": "acidic medium such as gastric fluid; background statement; cited from earlier work"}, "[2]": {"assay": "Dissolution of 1 gram of crystalline carvedilol phosphate in methanol", "type": "physicochemical", "excerpt": "The improved solubility by the addition of acetic acid is exemplified by the following results."}}, "note": "Where a name gives a salt, the structure may show the parent alone."}
{"compound": "COc1ccccc1OCCNCC(O)COc1cccc2[nH]c3ccccc3c12", "note": "(stereo not drawn) [hydrochloride salt, 1,1-(9H-Carbazol-4-yloxy)-3-[[2-(2-methoxyphenoxy)ethyl]amino]-2-propanol]", "values": [{"measurement": "solubility", "setting": "[1]", "result": "reduced solubility"}]}
{"compound": "carvedilol phosphate [crystalline carvedilol phosphate]", "values": [{"measurement": "methanol in which a solution was formed", "setting": "[2]; containing 2% acetic acid (w/w relative to the carvedilol), solution formed rapidly", "result": 3, "unit": "mL"}, {"measurement": "methanol required for dissolution", "setting": "[2]; in the absence of acetic acid", "result": "about 100 mL"}]}
